Measured values: US20230192686A1, “1H-PYRROLO[2,3-B]PYRIDINES AND PREPARATION AND USES THEREOF” (BioSplice Therapeutics, Inc., priority 2021, published 2023)

These molecules were tested against recombinant DYRK1A kinase (Homo sapiens, UniProt Q13627) (assay: DYRK1A kinase assay (Ser/Thr 18 peptide Z-lyte FRET)). Details: DYRK1A kinase activity; 15 μM ATP, 4 μM Ser/Thr peptide 18, one hour at room temperature.
Format: biochemical
Protocol: Representative compounds were screened using the assay procedure for DYRK1A kinase activity as described below.
Each compound was dissolved in DMSO as a 10 mM stock and used to prepare compound source plates. Serial dilution (1:3, 11-point dose-response curves from 10 μM to 0.00016 μM) and compound transfer was performed using the ECHO 550 (Labcyte, Sunnyvale, Calif.) into 1536-well black-walled round bottom plates (Corning).
The DYRK1A kinase assay was run using the Ser/Thr 18 peptide Z-lyte assay kit according to manufacturer's instructions (Life Technologies—a Division of Thermo-Fisher). This is a non-radioactive assay using fluorescence resonance energy transfer (FRET) between coumarin and fluorescein to detect kinase activity which is represented as a ratio of coumarin emission/fluorescein emission.
Briefly, recombinant DYRK1A kinase, ATP and Ser/Thr peptide 18 were prepared in 1× Kinase buffer to final concentrations of 0.25 μg/mL, 15 μM, and 4 μM respectively. The mixture was allowed to incubate with the representative compounds for one hour at room temperature. All reactions were performed in duplicate. Unphosphorylated (“0% Control”) and phosphorylated (“100% control”) forms of Ser/Thr 18 served as control reactions. Additionally, an 11-point dose-response curve of Staurosporine (1 uM top) was run to serve as a positive compound control.
After incubation, Development Reagent A was diluted in Development Buffer then added to the reaction and allowed to further incubate for one hour at room temperature. The plate was read at Ex 400 Em 455 to detect the coumarin signal and Ex 400 Em 520 to measure the signal (EnVision Multilabel Plate Reader, PerkinElmer).
The Emission ratio (Em) was calculated as a ratio of the coumarin (C) emission signal (at 445 nm)/Fluorescein (F) emission signal (at 520 nm). The percent phosphorylation was then calculated using the following formula: [1−((Em ratio×F100%)−C100%)/((C0%−C100%)+(Em ratio×(F100%−F0%)))]. Dose-response curves were generated, and inhibitory concentration (IC50) values were calculated using non-linear regression curve fit in the Dotmatics' Studies Software (Bishops Stortford, UK).

| EC50 [nM] | Structure (SMILES) |
| --- | --- |
| 2 | CN1CCC(Oc2ncnc3ccc(-c4c[nH]c5ncccc45)cc23)CC1 [Compound 99, 4-((1-Methylpiperidin-4-yl)oxy)-6-(1H-pyrrolo[2,3-b]pyridin-3-yl) quinazoline] |
| 6 | CN1CCC(Nc2ncnc3ccc(-c4c[nH]c5ncccc45)cc23)CC1 [Compound 100, N-(1-Methylpiperidin-4-yl)-6-(1H-pyrrolo[2,3-b]pyridin-3-yl) quinazolin-4-amine] |
| 6 | COc1ccc(Nc2ncnc3ccc(-c4c[nH]c5ncccc45)cc23)cn1 [Compound 101, N-(6-Methoxypyridin-3-yl)-6-(1H-pyrrolo[2,3-b]pyridin-3-yl) quinazolin-4-amine] |
| 2 | CN1CCC(Oc2ccc(Nc3ncnc4ccc(-c5c[nH]c6ncccc56)cc34)cn2)CC1 [Compound 102, N-(6-((1-Methylpiperidin-4-yl)oxy)pyridin-3-yl)-6-(1H-pyrrolo[2,3-b]pyridin-3-yl)quinazolin-4-amine] |
| 1 | c1cncc(CNc2ncnc3ccc(-c4c[nH]c5ncccc45)cc23)c1 [Compound 103, N-(Pyridin-3-ylmethyl)-6-(1H-pyrrolo[2,3-b]pyridin-3-yl)quinazolin-4-amine] |
| 11 | CN1CCN(c2ccc(CNc3ncnc4ccc(-c5c[nH]c6ncccc56)cc34)cn2)CC1 [Compound 104, N-((6-(4-Methylpiperazin-1-yl)pyridin-3-yl)methyl)-6-(1H-pyrrolo[2,3-b]pyridin-3-yl)quinazolin-4-amine] |
| 4 | CN1CCN(c2cc(CNc3ncnc4ccc(-c5c[nH]c6ncccc56)cc34)ccn2)CC1 [Compound 105, N-((2-(4-Methylpiperazin-1-yl)pyridin-4-yl)methyl)-6-(1H-pyrrolo [2,3-b]pyridin-3-yl)quinazolin-4-amine] |
| 3 | CN1CCC(NC(=O)c2ncnc3ccc(-c4c[nH]c5ncccc45)cc23)CC1 [Compound 106, N-(1-Methylpiperidin-4-yl)-6-(1H-pyrrolo[2,3-b]pyridin-3-yl) quinazoline-4-carboxamide] |
| 52 | O=C(c1ncnc2ccc(-c3c[nH]c4ncccc34)cc12)N1CCNC2(CC2)C1 [Compound 108, (6-(1H-Pyrrolo[2,3-b]pyridin-3-yl)quinazolin-4-yl)(4,7-diazaspiro [2.5]octan-7-yl)methanone] |
| 1 | COc1ccnc2[nH]cc(-c3ccn4ncc(C(=O)NC5CCN(C)CC5)c4c3)c12 [Compound 128, 5-(4-Methoxy-1H-pyrrolo[2,3-b]pyridin-3-yl)-N-(1-methylpiperidin-4-yl)pyrazolo[1,5-a]pyridine-3-carboxamide] |
| 10 | Cn1cc(-c2ccnc3[nH]cc(-c4ccc5ncccc5c4)c23)cn1 [Compound 186, 6-(4-(1-methyl-1H-pyrazol-4-yl)-1H-pyrrolo[2,3-b]pyridin-3-yl) quinoline] |
| 36 | O=C1CC2(CCNCC2)Oc2cc(-c3c[nH]c4ncc(Cl)cc34)ccc21 [Compound 226, 7-(5-Chloro-1H-pyrrolo[2,3-b]pyridin-3-yl)spiro[chromane-2,4′-piperidin]-4-one] |
| 16 | CN1CCN(C(=O)c2cnn3ccc(-c4c[nH]c5ncc(F)cc45)cc23)CC1 [Compound 257, (5-(5-Fluoro-1H-pyrrolo[2,3-b]pyridin-3-yl)pyrazolo[1,5-a]pyridin-3-yl)(4-methylpiperazin-1-yl)methanone] |
| 4 | Cc1cnc2[nH]cc(-c3ccc4nccn4c3)c2c1 [Compound 280, 6-(5-methyl-1H-pyrrolo[2,3-b]pyridin-3-yl)imidazo[1,2-a]pyridine] |
| 2 | Cc1nc2c(F)cc(-c3c[nH]c4ncc(C5=CCN(C)CC5)cc34)cc2n1C(C)C [Compound 325, 4-Fluoro-1-isopropyl-2-methyl-6-(5-(1-methyl-1,2,3,6-tetrahydropyridin-4-yl)-1H-pyrrolo[2,3-b]pyridin-3-yl)-1H-benzo[d]imidazole] |
| 2 | Cc1nc2c(F)cc(-c3c[nH]c4ncc(N5CCN(C)CC5)cc34)cc2n1C(C)C [Compound 367, 4-Fluoro-1-isopropyl-2-methyl-6-(5-(4-methylpiperazin-1-yl)-1H-pyrrolo[2,3-b]pyridin-3-yl)-1H-benzo[d]imidazole] |
| 13 | Cc1nc2c(F)cc(-c3c[nH]c4ncc(CN5CCN(C)CC5)cc34)cc2n1C(C)C [Compound 409, 4-Fluoro-1-isopropyl-2-methyl-6-(5-((4-methylpiperazin-1-yl)methyl)-1H-pyrrolo[2,3-b]pyridin-3-yl)-1H-benzo[d]imidazole] |
| 96 | CN1CCN(Cc2cnc3[nH]cc(-c4ccc5c(c4)C(C)(C)CNC5=O)c3c2)CC1 [Compound 435, 4,4-dimethyl-6-(5-((4-methylpiperazin-1-yl)methyl)-1H-pyrrolo[2,3-b]pyridin-3-yl)-3,4-dihydroisoquinolin-1(2H)-one] |
| 16 | CN1CCN(Cc2cnc3[nH]cc(-c4ccc5nccnc5c4)c3c2)CC1 [Compound 439, 6-(5-((4-Methylpiperazin-1-yl)methyl)-1H-pyrrolo[2,3-b]pyridin-3-yl) quinoxaline] |
| 4 | Cc1nc2c(F)cc(-c3c[nH]c4ncc(C(=O)NC5CCN(C)CC5)cc34)cc2n1C(C)C [Compound 451, 3-(4-Fluoro-1-isopropyl-2-methyl-1H-benzo[d]imidazol-6-yl)-N-(1-methylpiperidin-4-yl)-1H-pyrrolo[2,3-b]pyridine-5-carboxamide] |
| 15 | CN1CCC(NC(=O)c2cnc3[nH]cc(-c4ccc5ncncc5c4)c3c2)CC1 [Compound 482, N-(1-Methylpiperidin-4-yl)-3-(quinazolin-6-yl)-1H-pyrrolo[2,3-b] pyridine-5-carboxamide] |
| 7 | Cc1nc2c(F)cc(-c3c[nH]c4ncc(C(=O)N5CCN(C)CC5)cc34)cc2n1C(C)C [Compound 493, (3-(4-Fluoro-1-isopropyl-2-methyl-1H-benzo[d]imidazol-6-yl)-1H-pyrrolo[2,3-b]pyridin-5-yl)(4-methylpiperazin-1-yl)methanone] |
| 16 | CN1CCN(C(=O)c2cnc3[nH]cc(-c4ccn5ncc(-c6cnn(C)c6)c5c4)c3c2)CC1 [Compound 502, (3-(3-(1-Methyl-1H-pyrazol-4-yl)pyrazolo[1,5-a]pyridin-5-yl)-1H-pyrrolo[2,3-b]pyridin-5-yl)(4-methylpiperazin-1-yl)methanone] |
| 9 | CN1CCN(C(=O)c2cnc3[nH]cc(-c4ccc5c(c4)OCCNC5=O)c3c2)CC1 [Compound 521, 8-(5-(4-Methylpiperazine-1-carbonyl)-1H-pyrrolo[2,3-b]pyridin-3-yl)-3,4-dihydrobenzo[f][1,4]oxazepin-5(2H)-one] |
| 2 | Cc1nc2c(F)cc(-c3c[nH]c4ncc(C(=O)N5C6CCC5CN(C)C6)cc34)cc2n1C(C)C [Compound 535, (3-(4-Fluoro-1-isopropyl-2-methyl-1H-benzo[d]imidazol-6-yl)-1H-pyrrolo[2,3-b]pyridin-5-yl)(3-methyl-3,8-diazabicyclo[3.2.1]octan-8-yl)methanone] |
| 10 | Cc1cn2c(n1)CN(C(=O)c1cnc3[nH]cc(-c4cc5n(c4)CCNC5=O)c3c1)CC2 [Compound 573, 7-(5-(2-Methyl-5,6,7,8-tetrahydroimidazo[1,2-a]pyrazine-7-carbonyl)-1H-pyrrolo[2,3-b]pyridin-3-yl)-3,4-dihydropyrrolo[1,2-a]pyrazin-1(2H)-one] |
| 3 | Cc1cn2c(n1)CN(C(=O)c1cnc3[nH]cc(-c4cc(F)c5nc(C)n(C(C)C)c5c4)c3c1)CC2 [Compound 577, (3-(4-Fluoro-1-isopropyl-2-methyl-1H-benzo[d]imidazol-6-yl)-1H-pyrrolo[2,3-b]pyridin-5-yl)(2-methyl-5,6-dihydroimidazo[1,2-a]pyrazin-7(8H)-yl)methanone] |
| 2 | CN1CCC(C(=O)Nc2cnc3[nH]cc(-c4ccc5ncccc5c4)c3c2)CC1 [Compound 648, 1-Methyl-N-(3-(quinolin-6-yl)-1H-pyrrolo[2,3-b]pyridin-5-yl) piperidine-4-carboxamide] |
| 2 | Cc1nc2c(F)cc(-c3c[nH]c4ncc(C(=O)Nc5cnn(C6CCNCC6)c5)cc34)cc2n1C(C)C [Compound 661, 3-(4-Fluoro-1-isopropyl-2-methyl-1H-benzo[d]imidazol-6-yl)-N-(1-(piperidin-4-yl)-1H-pyrazol-4-yl)-1H-pyrrolo[2,3-b]pyridine-5-carboxamide] |
| 3 | Cc1nc2c(F)cc(-c3c[nH]c4ncc(C(=O)Nc5cnn(C6CCN(C)CC6)c5)cc34)cc2n1C(C)C [Compound 703, 3-(4-Fluoro-1-isopropyl-2-methyl-1H-benzo[d]imidazol-6-yl)-N-(1-(1-methylpiperidin-4-yl)-1H-pyrazol-4-yl)-1H-pyrrolo[2,3-b]pyridine-5-carboxamide] |
